The source of these data is ChEMBL document CHEMBL1201862, “PubChem BioAssay data set” (2004).

Assay [1] in a line: mitochondrial function rescue without frataxin homolog – Friedreich's ataxia, plus single-dose screen, dose response (AID 1465).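 Also: yeast depleted of Yfh1p frataxin homolog grown on glycerol needing respiration; WST-1 tetrazolium dye reduction as measure of cellular dehydrogenase metabolic activity.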 Type of assay: functional.
Assay [2] deals with T1, Corticotropin-releasing factor receptor 2/Corticotropin-releasing factor-binding protein (Homo sapiens, UniProt P24387+Q13324).
T1 sequence (Q13324 whole entry): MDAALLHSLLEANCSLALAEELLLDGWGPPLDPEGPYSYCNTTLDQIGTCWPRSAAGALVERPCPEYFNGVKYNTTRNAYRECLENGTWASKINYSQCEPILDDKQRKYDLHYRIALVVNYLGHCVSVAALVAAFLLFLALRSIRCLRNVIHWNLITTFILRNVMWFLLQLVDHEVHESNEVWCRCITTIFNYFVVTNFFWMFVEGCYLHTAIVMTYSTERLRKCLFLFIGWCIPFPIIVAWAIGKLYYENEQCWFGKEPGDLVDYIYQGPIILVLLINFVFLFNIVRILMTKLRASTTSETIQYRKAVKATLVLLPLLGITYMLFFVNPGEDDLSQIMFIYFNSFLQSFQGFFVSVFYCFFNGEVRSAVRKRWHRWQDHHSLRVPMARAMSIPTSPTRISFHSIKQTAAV
T1 sequence (P24387 whole entry): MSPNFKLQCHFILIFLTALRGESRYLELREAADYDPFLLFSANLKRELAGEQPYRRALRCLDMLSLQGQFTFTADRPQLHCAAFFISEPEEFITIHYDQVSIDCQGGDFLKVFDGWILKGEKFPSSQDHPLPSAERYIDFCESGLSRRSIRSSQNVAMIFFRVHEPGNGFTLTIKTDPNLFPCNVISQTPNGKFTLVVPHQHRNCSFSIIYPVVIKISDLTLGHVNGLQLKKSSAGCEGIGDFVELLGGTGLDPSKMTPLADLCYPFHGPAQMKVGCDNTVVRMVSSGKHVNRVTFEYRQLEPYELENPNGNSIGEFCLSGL
In words: activators of CRF receptor 2 with binding protein – uHTS hits, confirmation (AID 602473). Type of assay: functional. As to conditions: read-out: EC50_Mean.

Assay [3] can be described thus: Counterscreen for IDE inhibitors: Luminescence-based cell-based high throughput dose response assay to identify compounds that are cytotoxic to HEK cells. [Related pubchem assays: 434962 (Primary screen (IDE inhibitors in singlicate)), 449730 (Counterscreen (Cytotoxicity in triplicate)), 435028 (Confirmation (IDE inhibitors in triplicate)) …. Type of assay: functional. As to conditions: HEK293. For orientation: Counterscreens check selectivity or assay interference.

A further assay addresses T2, Insulin-degrading enzyme (Homo sapiens, UniProt P14735).
T2 sequence (P14735 whole entry): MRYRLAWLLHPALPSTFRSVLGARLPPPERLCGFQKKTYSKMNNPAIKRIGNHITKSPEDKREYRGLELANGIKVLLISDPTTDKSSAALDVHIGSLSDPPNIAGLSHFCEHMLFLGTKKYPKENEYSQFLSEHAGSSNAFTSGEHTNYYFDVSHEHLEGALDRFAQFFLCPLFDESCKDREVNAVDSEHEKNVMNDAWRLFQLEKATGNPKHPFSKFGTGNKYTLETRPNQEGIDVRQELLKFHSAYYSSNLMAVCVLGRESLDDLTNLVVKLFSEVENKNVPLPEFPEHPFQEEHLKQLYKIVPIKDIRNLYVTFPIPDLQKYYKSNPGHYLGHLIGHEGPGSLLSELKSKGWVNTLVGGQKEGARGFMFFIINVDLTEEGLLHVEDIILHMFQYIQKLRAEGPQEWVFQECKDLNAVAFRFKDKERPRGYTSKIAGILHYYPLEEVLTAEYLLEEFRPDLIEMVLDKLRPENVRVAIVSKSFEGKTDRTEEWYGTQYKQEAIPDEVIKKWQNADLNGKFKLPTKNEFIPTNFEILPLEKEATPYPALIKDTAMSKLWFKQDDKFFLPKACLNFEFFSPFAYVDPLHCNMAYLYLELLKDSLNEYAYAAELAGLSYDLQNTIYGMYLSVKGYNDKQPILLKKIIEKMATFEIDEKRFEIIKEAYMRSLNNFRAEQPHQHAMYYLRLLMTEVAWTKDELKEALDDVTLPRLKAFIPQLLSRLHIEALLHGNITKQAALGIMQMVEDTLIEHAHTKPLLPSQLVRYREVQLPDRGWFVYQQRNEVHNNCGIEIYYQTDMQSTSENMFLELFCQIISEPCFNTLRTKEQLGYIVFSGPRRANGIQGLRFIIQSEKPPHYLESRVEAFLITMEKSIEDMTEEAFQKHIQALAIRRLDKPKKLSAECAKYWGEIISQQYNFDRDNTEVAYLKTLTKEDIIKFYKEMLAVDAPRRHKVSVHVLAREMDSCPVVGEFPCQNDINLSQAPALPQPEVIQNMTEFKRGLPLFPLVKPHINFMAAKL
In words: Dose Response: Fluorescence polarization-based cell-based high throughput dose response assay for inhibitors of insulin-degrading enzyme (IDE). [Related pubchem assays: 434962 (Primary screen (IDE inhibitors in singlicate)), 449730 (Counterscreen (Cytotoxicity in triplicate)), 435028 (Confirmation (IDE inhibitors in triplicate)), 434984 (Summary …. Type of assay: functional. Background: In fluorescence polarisation assays a small probe gives low polarisation when free and higher when bound to something large.

The nature of assay [4]: NIH3T3 cell viability loss – ATP luminescence, mouse fibroblasts, counter-screen, dose response (AID 2010).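 Also: cells exposed to compound for about 90 hours before reading.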 Type of assay: functional, cell-based.
Assay [5] concerns Streptococcus. In words: Luminescence Microorganism-Based Dose Response Follow up to Identify Compounds Cytotoxic to Streptococcus. [Related pubchem assays: 1677 (Project Summary), 1915, 1914, 1902 (Retest at Dose), 1900 (Counter Screen), 1662 (Primary HTS)]. Type of assay: functional, organism-based.
Assay [6] relates to Streptococcus. In words: GAS UMAA2166 growth inhibition – luminescence, BacTiterGlo, counter-screen for streptokinase expression inhibitor project, dose response (AID 1915).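 Also: potency for reduction of bacterial viability or growth.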 Type of assay: functional, organism-based.
Assay [7] relates to Streptococcus sp. 'group A'. In words: Streptococcus pyogenes SK(-)GAS viability under kanamycin – luminescence, BacTiterGlo, confirmation, counter-screen for streptokinase expression inhibitor project, dose response (AID 1900). Type of assay: functional, organism-based.
Assay [8] is described as follows: microbe, parasite or virus in culture. As to conditions: Mycobacterium tuberculosis. Type of assay: functional.
The nature of assay [9]: Trypanosoma cruzi growth suppression in host cells – NIH3T3 host cells, beta-gal luminescence, confirmation (AID 2044).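 Also: intracellular parasites grown in NIH/3T3 mouse fibroblasts as host cells; luminescent beta-galactosidase reporter signal from transgenic T. cruzi replicating inside host cells; inhibitors lower the luminescence signal.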 Type of assay: functional, cell-based.
For a further assay, the target named is T3, Streptokinase A (Streptococcus pyogenes serotype M1, UniProt P10520).
T3 sequence (P10520 whole entry): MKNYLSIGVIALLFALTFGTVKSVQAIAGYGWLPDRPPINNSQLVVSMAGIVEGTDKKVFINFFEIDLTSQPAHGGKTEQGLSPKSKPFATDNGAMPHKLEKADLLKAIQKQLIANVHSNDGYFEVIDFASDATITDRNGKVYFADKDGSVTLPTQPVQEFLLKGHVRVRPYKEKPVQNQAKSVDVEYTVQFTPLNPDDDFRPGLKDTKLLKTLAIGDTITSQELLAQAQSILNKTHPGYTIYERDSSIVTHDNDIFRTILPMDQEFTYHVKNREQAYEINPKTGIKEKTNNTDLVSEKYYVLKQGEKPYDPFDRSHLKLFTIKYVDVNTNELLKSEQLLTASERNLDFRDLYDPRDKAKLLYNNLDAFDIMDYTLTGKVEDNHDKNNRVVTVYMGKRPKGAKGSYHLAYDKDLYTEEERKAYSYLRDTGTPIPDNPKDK
In words: viability-normalized secreted streptokinase activity reduction – plasminogen activation absorbance, OD405, dose response (AID 1914).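 Also: secreted streptokinase activity via plasminogen activation per viability signal from cell pellet.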 Type of assay: functional, Streptococcus pyogenes M1 GAS.

Assay [10] can be described thus: Luminescence Cell-Based Dose Confirmation HTS to Identify Inhibitors of Polyadenylation. Type of assay: functional.
Assay [11] in a line: mRNA 3' processing disruption, beta-gal signal increase – luminescence, S. cerevisiae SKY197-pL101, dose response (AID 2525). Type of assay: functional, cell-based.

Calls of active or inactive are those of the source. Rule as the data show it, for most assays here: actives have a measured EC50 and inactives only a lower limit.

`CC1(OC(=O)C2CCCC2)C(=O)C=C2C=C(c3ccsc3)N(Cc3ccco3)C=C2C1=O` (stereo not drawn): the EC50 in assay [1] was > 100 µM (active).

Usually IC50 stands for the point on the concentration scale where inhibition reaches its midpoint. In the case of `CCN1/C(=C\C=C(C(C)=O)C(C)=O)Sc2ccccc21`, in assay [2], the EC50 was 4.9 µM (active). Further, the figures for the IC50 (in assay [3]; on Insulin-degrading enzyme) were 33.9 µM (not active) and 8.83 µM (active), respectively.

Turning to `Cc1cc(C)c2nc(-c3ccncc3)cc(C(=O)N3CCN(Cc4ccccc4Cl)CC3)c2c1`, the EC50 in assay [4] is > 60 µM (not active); in the assay on Streptococcus [5], 9.94 µM (active); with Streptococcus [6], > 150 µM (not active); in [7], 3.71 µM (active); in assay [9], 2.35 µM (active); at Streptokinase A it was 10.3 µM (active). For the same compound, the CC50 in assay [8] is > 40 µM (active).

Take `CC(=O)c1ccc(Sc2ccccc2)c([N+](=O)[O-])c1`: the values for the EC50 in [10] and in assay [11] were 11.4 µM (active) and 2.88 µM (active), respectively.
